This data set in a line: Thymol solubility / dispersion in deionized water. Type of data set: physicochemical. Conditions: suspended at […] in deionized water.

As to `Cc1ccc(C(C)C)c(O)c1` [thymol, 2-Isopropyl-5-methylphenol], the Appearance of suspension entry is on record as “showed insoluble particulates”.

For the origin of these results see US8846863B2, “Heat stable protein ingredients” (University of Tennessee Research Foundation, priority 2010, dated 2014).
